From PubChem BioAssay AID1963866 (Molecular Pharmacology Branch, DTP, NCI, 2024) come the findings set out here.

Each structure is given as a SMILES string. “And” between values parts separate entries of the source, which are not always exact repeats. Identical values can stand only once.

This assay relates to PDC KRAS tumor spheroids with HUVEC/MSC, viability. In words: Anticancer human tumor 349418-098-R-PDC patient-derived lung adenocarcinoma cell line growth inhibition [KRAS2]. The settings on record: for viability, T/C: stronger effect = lower value. An excerpt:
Multicellular complex tumor spheroid response to RAS pathway inhibitors in combination with a targeted agents in patient-derived cell lines with oncogenic KRAS variants from multiple cancer types
A high-throughput screen of multi-cell type tumor spheroids was designed to identify active combinations of targeted small molecules and KRAS pathway inhibitors. Complex spheroids include a stromal component modeled by human endothelial cells (HUVEC) and fibroblasts modeled by human mesenchymal stem cells (MSCs). The concentration ranges selected for each drug and investigational agent were based upon clinically achievable concentrations if the clinical Cmax of the agent was known.
Compounds. The drugs and investigational agents: BI-3406 (NSC825286), BAY-293 (NSC824723), batoprotafib (TNO155; NSC825523), sotorasib (AMG 510; NSC818433), MRTX1257 (NSC819558), elimusertib (BAY 1895344; NSC800525), molibresib (GSK525762; NSC774829), temuterkib (LY3214996; NSC803410), venetoclax (NSC766270), alisertib (NSC759677), olaparib (NSC753686), talazoparib (NSC767125), erdafitinib (NSC781556), ipatasertib (NSC767898), cabozantinib (NSC761068), nintedanib (NSC756659), abemaciclib (NSC768073), docetaxel (NSC628503), trametinib (NSC758246), and sapanisertib (NSC764658) were obtained from the National Cancer Institute (NCI) Developmental Therapeutics Program Chemical Repository. The FDA-approved anticancer drug set is available from the Developmental Therapeutics Program. […] The stock solutions were prepared in dimethyl sulfoxide (DMSO, Sigma-Aldrich, St. Louis, MO, cat. D2650) at 800-fold the tested concentration and stored at -70 degrees C prior to their use. All drugs and investigational agents were tested over a range starting from a high concentration at or near the clinical Cmax and decreasing in half-log increments. If the clinical Cmax for an agent had not been determined, the highest concentration tested was 10 microM.
Cell Culture. All cells were maintained in an incubator at 37 degrees C and 5% CO2 with 95% humidity. The PDC lines were cultured according to standard operating procedures established by the NCI PDMR (https://pdmr.cancer.gov/sops/default.htm). Briefly, all PDCs were thawed and cultured in Matrigel-coated flasks prepared with a working solution of 1X Ham's F-12 nutrient mix, without supplementation (Invitrogen, Waltham, MA, cat. 11765054), 100 U/mL penicillin-streptomycin (Invitrogen, cat. 15140122), and 2.5% Matrigel (Corning Inc., Corning, NY, cat. 354248) for the first three passages. All PDCs were cultured in complete DMEM/F-12 media containing advanced DMEM/F-12 (Invitrogen, cat. 12634028), 4.9% defined fetal bovine serum, heat inactivated (HyClone Laboratories Inc., Logan, UT, cat. SH30070.03HI), 389 ng/mL hydrocortisone (Sigma-Aldrich, cat. H4001), 9.7 ng/mL human EGF recombinant protein (Invitrogen, cat. PHG0313), 23.4 microg/mL adenine (Sigma-Aldrich, cat. A2786), 97.3 U/mL penicillin-streptomycin (Invitrogen, cat. 15140122), 1.9 mM L-glutamine (Invitrogen, cat. 25030081), and 9.7 microM Y-27632 dihydrochloride (Tocris Bioscience, Bristol, United Kingdom, cat. 1254). The PDCs were cultured in complete DMEM/F12 media without 9.7 microM Y-27632 dihydrochloride for at least two passages prior to the screen. The established cell line HOP-62 was cultured in RPMI 1640 medium, HEPES (Invitrogen, cat. 22400105) with 10% defined fetal bovine serum (HyClone Laboratories Inc., cat. SH30070.03) and 2 mM L-glutamine (Invitrogen, cat. 25030081). The pooled donor HUVEC were cultured in endothelial cell growth medium 2 (PromoCell, Heidelberg, Germany, cat. C-22011) and the hMSC were cultured in mesenchymal stem cell growth medium 2 (PromoCell, cat. C-28009). For all experiments, HUVEC and hMSC were used at passages </=5, while the malignant cell lines were used at passages </=15. […]
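Further: spheroids exposed to compounds for seven days before readout.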

The term viability, T/C denotes the result in the treated group divided by that in the control group, in per cent. As a reminder, the IC50 is the concentration that gives 50% inhibition. Turning to `CC(=O)Nc1cccc(-n2c(=O)n(C3CC3)c(=O)c3c(Nc4ccc(I)cc4F)n(C)c(=O)c(C)c32)c1`, the viability, T/C is, setting by setting: (compound 0.0001 µM) 31.7% [middle of 5 runs]; (compound 0.000316 µM) 22.2% [middle of 5 runs]; (compound 0.001 µM) 18.4% [middle of 5 runs]; (compound 0.00316 µM) 13.8% [middle of 5 runs]; (compound 0.01 µM) 9.89% [middle of 5 runs]; (compound 0.0316 µM) 7.25% [middle of 5 runs]. For the same compound, the IC50 (curve of compound) was below 0.1 nM.
Take `CC(=O)OC12COC1CC(O)C1(C)C(=O)C(O)C3=C(C)C(OC(=O)C(O)C(NC(=O)OC(C)(C)C)c4ccccc4)CC(O)(C(OC(=O)c4ccccc4)C21)C3(C)C` (stereo not drawn): the viability, T/C (compound 0.01 µM) was 15% [middle of 5 runs]; the viability, T/C (compound 0.0316 µM) was 17.7% [middle of 5 runs]; the viability, T/C (compound 0.1 µM) was 19.3% [middle of 5 runs]; the viability, T/C (compound 0.316 µM) is 22.6% [middle of 5 runs]; the viability, T/C (compound 1 µM) is 32.3% [middle of 4 runs]; the viability, T/C (compound 3.16 µM) was 25.7% [middle of 5 runs]. The IC50 (curve of compound) was below 10 nM.
`CC(C)NCC(C(=O)N1CCN(c2ncnc3c2C(C)CC3O)CC1)c1ccc(Cl)cc1` (stereo not drawn): the viability, T/C is 93.4% [middle of 5 runs] (compound 0.0316 µM); 77.8% [middle of 5 runs] (compound 0.1 µM); 49.3% [middle of 5 runs] (compound 0.316 µM); 27.4% [middle of 5 runs] (compound 1 µM); 17.1% [middle of 5 runs] (compound 3.16 µM); 7.52% [middle of 5 runs] (compound 10 µM). Further, the IC50 (curve of compound) was 334 nM [middle of 5 runs].
Turning to `CC(C)n1nc(-c2ccc3oc(N)nc3c2)c2c(N)ncnc21`, the viability, T/C was 87.2% [middle of 5 runs] (compound 0.000316 µM); 47.6% [middle of 5 runs] (compound 0.001 µM); 17.1% [middle of 5 runs] (compound 0.00316 µM); 10.7% [middle of 5 runs] (compound 0.01 µM); 9.1% [middle of 5 runs] (compound 0.0316 µM); 8.83% [middle of 5 runs] (compound 0.1 µM). Further, the IC50 (curve of compound) is 0.92 nM [middle of 5 runs].
For `CC1(C)CCC(CN2CCN(c3ccc(C(=O)NS(=O)(=O)c4ccc(NCC5CCOCC5)c([N+](=O)[O-])c4)c(Oc4cnc5[nH]ccc5c4)c3)CC2)=C(c2ccc(Cl)cc2)C1`, the viability, T/C (compound 0.0316 µM) was 101% [middle of 5 runs]; the viability, T/C (compound 0.1 µM) is 97.5% [middle of 5 runs]; the viability, T/C (compound 0.316 µM) was 91.1% [middle of 5 runs]; the viability, T/C (compound 1 µM) is 88.3% [middle of 5 runs]; the viability, T/C (compound 3.16 µM) was 21.2% [middle of 5 runs]; the viability, T/C (compound 10 µM) is 5.14% [middle of 5 runs]. The IC50 (curve of compound) is 1.89 µM [middle of 5 runs].
Take `CC1COCCN1c1cc(-c2ccnn2C)c2ccnc(-c3ccn[nH]3)c2n1` (stereo not drawn): the viability, T/C reads like this: (compound 0.1 µM) 10.9% [middle of 5 runs]; (compound 0.316 µM) 6.73% [middle of 5 runs]; (compound 1 µM) 5.15% [middle of 5 runs]; (compound 3.16 µM) 4.48% [middle of 5 runs].
`CC1OCC2(CCN(c3cnc(Sc4ccnc(N)c4Cl)c(N)n3)CC2)C1N` (stereo not drawn): the viability, T/C (compound 0.0316 µM) is 102% (2×) and 80.3%. Moreover, the IC50 (compound alone, run of 07/12/2021) is 10000 nM and > 10000 nM; the IC50 (compound alone, run of 07/19/2021) was above 10000 nM; the IC50 (compound alone, run of 07/26/2021) is above 10000 nM; the IC50 (curve of compound) is above 10000 nM.
Regarding `CCN1CCN(Cc2ccc(Nc3ncc(F)c(-c4cc(F)c5nc(C)n(C(C)C)c5c4)n3)nc2)CC1`, the viability, T/C runs as follows: (compound 0.00316 µM) 60.9% [middle of 5 runs]; (compound 0.01 µM) 35.7% [middle of 5 runs]; (compound 0.0316 µM) 19.6% [middle of 5 runs]; (compound 0.1 µM) 16.7% [middle of 5 runs]; (compound 0.316 µM) 14.5% [middle of 5 runs]; (compound 1 µM) 5.13% [middle of 5 runs].
Turning to `CCNC(=O)CC1N=C(c2ccc(Cl)cc2)c2cc(OC)ccc2-n2c(C)nnc21` (stereo not drawn), the viability, T/C is 57.3% [middle of 5 runs] (compound 0.1 µM); 30.4% [middle of 5 runs] (compound 0.316 µM); 8.84% [middle of 5 runs] (compound 1 µM); 2.06% [middle of 5 runs] (compound 3.16 µM); 1.07% [middle of 5 runs] (compound 10 µM). Also, the IC50 (curve of compound) is 138 nM [middle of 5 runs].
In the case of `CN(C)C/C=C/C(=O)Nc1cc2c(Nc3ccc(F)c(Cl)c3)ncnc2cc1O[C@H]1CCOC1`, the viability, T/C by setting is: (compound 0.001 µM) 94.4% [middle of 5 runs]; (compound 0.0316 µM) 99% [middle of 5 runs]; (compound 0.1 µM) 97.2% [middle of 5 runs]. Also, the IC50 (curve of compound) was above 100 nM.
Take `COc1cc(Nc2ncc3c(n2)-c2ccc(Cl)cc2C(c2c(F)cccc2OC)=NC3)ccc1C(=O)O`: the viability, T/C is, setting by setting: (compound 0.1 µM) 27.8% [middle of 5 runs]; (compound 0.316 µM) 33.1% [middle of 5 runs]; (compound 1 µM) 35.6% [middle of 5 runs]; (compound 3.16 µM) 33.9% [middle of 5 runs]; (compound 10 µM) 24.8% [middle of 5 runs]. The IC50 (curve of compound) was < 31.6 nM and 43.2 nM.
On to `COc1cc(OC)cc(N(CCNC(C)C)c2ccc3ncc(-c4cnn(C)c4)nc3c2)c1`, for which the viability, T/C (compound 0.0316 µM) was 99% [middle of 4 runs]; the viability, T/C (compound 0.1 µM) is 102% [middle of 4 runs]; the viability, T/C (compound 1 µM) is 98.2% [middle of 4 runs]; the viability, T/C (compound 3.16 µM) was 38.9% [middle of 4 runs]; the viability, T/C (compound 10 µM) was 0.57% [middle of 4 runs]. In addition, the IC50 (curve of compound) was 2.53 µM [middle of 4 runs].
Turning to `COc1cc2nccc(Oc3ccc(NC(=O)C4(C(=O)Nc5ccc(F)cc5)CC4)cc3)c2cc1OC`, the viability, T/C is, setting by setting: (compound 0.0316 µM) 102% [middle of 5 runs]; (compound 0.1 µM) 98.8% [middle of 5 runs]; (compound 0.316 µM) 94.4% [middle of 5 runs]; (compound 3.16 µM) 14.4% [middle of 5 runs]. In addition, where the note is “curve of compound”, the IC50 was 1.76 µM [middle of 5 runs].
As for `Cn1nccc1Nc1nccc(-c2cc3c(s2)C(C)(C)N(CCN2CCOCC2)C3=O)n1`, the viability, T/C (compound 0.0316 µM) is 56.4% [middle of 5 runs]; the viability, T/C (compound 0.1 µM) was 40.2% [middle of 5 runs]; the viability, T/C (compound 0.316 µM) is 21.2% [middle of 5 runs]; the viability, T/C (compound 1 µM) is 14.3% [middle of 5 runs]; the viability, T/C (compound 3.16 µM) was 7.8% [middle of 5 runs]; the viability, T/C (compound 10 µM) was 5.9% [middle of 5 runs]. Further, the IC50 (curve of compound) is 52.2 nM [middle of 5 runs].
As to `Cn1ncnc1[C@H]1c2n[nH]c(=O)c3cc(F)cc(c23)N[C@@H]1c1ccc(F)cc1`, the viability, T/C (compound 0.000316 µM) is 104% [middle of 5 runs]; the viability, T/C (compound 0.001 µM) was 96.9% [middle of 5 runs]; the viability, T/C (compound 0.00316 µM) was 96.4% [middle of 5 runs]; the viability, T/C (compound 0.01 µM) was 94.2% [middle of 5 runs]; the viability, T/C (compound 0.0316 µM) was 86.2% [middle of 5 runs]; the viability, T/C (compound 0.1 µM) was 78.7% [middle of 5 runs]. In addition, the IC50 (curve of compound) was above 100 nM.
For `O=C(c1cc(Cc2n[nH]c(=O)c3ccccc23)ccc1F)N1CCN(C(=O)C2CC2)CC1`, the viability, T/C is 91.8% [middle of 5 runs] (compound 0.0316 µM) and 94.4% [middle of 5 runs] (compound 0.1 µM).
